Results: patent US20260008780A1, “SUBSTITUTED 3,4-DIHYDROISOQUINOLIN-1(2H)-ONE DERIVATIVES AND RELATED USES” (NodThera Limited, priority 2022, published 2026)

Tested on: IL-1β release upon NLRP3 activation in peripheral blood mononuclear cells (PBMC)
Assay: PBMC IC50 Determination Assay
Assay type: cell-based
Settings: Homo sapiens; PBMC from buffy coats, LPS 3 h, compound 30 min, then ATP (5 mM) or nigericin (10 μM) 1 h; IL-1β in media by ELISA (Protocol A) or HTRF (Protocol B)
Method: The compounds of the present disclosure were tested for their inhibitory activity against IL-1β release upon NLRP3 activation in peripheral blood mononuclear cells (PBMC).
Protocol A. PBMC were isolated from buffy coats by density gradient centrifugation on Histopaque-1077 (Sigma, cat no. 10771). Isolated cells were seeded into the wells of a 96-well plate and incubated for 3 h with lipopolysaccharide (LPS). Following medium exchange, the compounds of the present disclosure were added (a single compound per well) and the cells were incubated for 30 min. Next, the cells were stimulated either with ATP (5 mM) or nigericin (10 μM) for 1 h and the cell culture media from the wells were collected for further analysis.
The release of IL-1β into the media was determined by a quantitative detection of IL-1β in the media using an IL-1p enzyme-linked immunosorbent assay (ELISA) Ready-SET-Go!, eBioscience cat. No. 88-7261-88. Briefly, in a first step, high affinity binding plates (Corning, Costar 9018 or NUNC Maxisorp Cat No. 44-2404) were coated overnight at 4° C. with specific capture antibody included in the kit (anti-human IL-1β ref 14-7018-68). Subsequently, plates were blocked with blocking buffer for 1 h at room temperature (rt) and after washing with a buffer (PBS with 0.05% Tween-20) incubated with protein standard and culture media. After 2 h of incubation at rt, plates were washed and incubated with biotinylated detection antibody included in the kit (anti-human IL-1β Biotin ref. 33-7110-68) for 1 h at rt. Plates were washed and incubated with HRP-streptavidin for 30 min at rt and washed again. The signal was developed after addition of 3,3′,5,5′-tetramethylbenzidine-peroxidase (TMB) until colour appeared and the reaction was stopped by 2 M H2SO4. A microplate spectrophotometer (BioTek) was used to detect signals with 450 nm. The detection range of IL-1β ELISA was […].
Protocol B. PBMC were isolated from buffy coats by density gradient centrifugation on Histopaque-1077 (Sigma, cat no. 10771). Isolated cells were seeded into the wells (280,000 cells/well) of a 96-well plate and incubated for 3 h with lipopolysaccharide (LPS, 1 μg/mL diluted 1000× from a 1 mg/mL stock solution). The compounds of the present disclosure were added (a single compound per well) and the cells were incubated for 30 min. Next, the cells were stimulated with ATP (5 mM final concentration diluted 20× from a 100 mM stock solution) for 1 h and the cell culture media from the wells were collected for further analysis.
The release of IL-1β into the media was determined by quantitative detection of IL-1β in the media using HTRF®, CisBio cat. No. 62HIL1BPEH. Briefly, cell culture supernatant were dispensed directly into the assay plate containing antibodies labelled with the HTRF® donor and acceptor. A microplate spectrophotometer (BMG) was used to detect signals at 655 nm and 620 nm. The detection range of IL-1β HTRF® was 39-6500 μg/mL.

SMILES | IC50 [nM]
CCNc1nc2c(s1)C(=O)N(CC(=O)Nc1ncccn1)CC2C (centres unmarked) [Compound 73, 2-(2-(Ethylamino)-7-methyl-4-oxo-6,7-dihydrothiazolo[5,4-c]pyridin-5(4H)-yl)-N-(pyrimidin-2-yl)acetamide] | 10000 to 50000
CNc1cc2c(s1)C(=O)N(CC(=O)Nc1ncccn1)CC21CC1 [Compound 74, 2-(2′-(Methylamino)-7′-oxo-5′H-spiro[cyclopropane-1,4′-thieno[2,3-c]pyridin]-6′(7′H)-yl)-N-(pyrimidin-2-yl)acetamide] | 100 to 1000
O=C(CN1CC2(CC2)c2cc(CC(F)F)sc2C1=O)Nc1ncccn1 [Compound 75, 2-(2′-(2,2-Difluoroethyl)-7′-oxo-5′H-spiro[cyclopropane-1,4′-thieno[2,3-c]pyridin]-6′(7′H)-yl)-N-(pyrimidin-2-yl)acetamide] | 1000 to 3000
O=C(CN1CC2(CC2)c2cc(C3CC3)sc2C1=O)Nc1ncc(F)cn1 [Compound 76, 2-(2′-Cyclopropyl-7′-oxo-5′H-spiro[cyclopropane-1,4′-thieno[2,3-c]pyridin]-6′(7′H)-yl)-N-(5-fluoropyrimidin-2-yl)acetamide] | 100 to 1000
C[C@@H]1CN(CC(=O)Nc2ncccn2)C(=O)c2sc(C3CC3)nc21 [Compound 77] | 1000 to 3000
